{"source": "paper PMC9442423", "about": "“Extracellular loop 2 of G protein–coupled olfactory receptors is critical for odorant recognition” (The Journal of Biological Chemistry, 2022)"}
{"target": "T1, mOR256-3 (Mus musculus, UniProt Q0VEF0)", "T1 construct": "gene Olfr124; full-length receptor from Dr H. Matsunami, expressed in Hana3A cells; surface detected by antirhodopsin antibody", "T1 sequence (Q0VEF0 1-315)": "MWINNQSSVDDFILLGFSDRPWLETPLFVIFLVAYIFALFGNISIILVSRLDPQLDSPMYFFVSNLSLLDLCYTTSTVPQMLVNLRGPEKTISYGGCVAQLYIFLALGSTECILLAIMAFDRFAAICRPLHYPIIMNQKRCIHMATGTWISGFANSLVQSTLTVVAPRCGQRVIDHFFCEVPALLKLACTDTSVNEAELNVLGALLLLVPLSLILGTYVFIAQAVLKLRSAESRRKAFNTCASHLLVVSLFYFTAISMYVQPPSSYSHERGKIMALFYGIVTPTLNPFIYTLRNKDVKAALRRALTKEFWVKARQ", "assay": "CRE-luciferase cAMP reporter in Hana3A cells, inhibition of odorant response", "format": "cell-based", "conditions": "antagonist against R-carvone, coumarin and geraniol"}
{"compound": "O=Cc1ccccc1", "note": "[benzaldehyde]", "CRE-luciferase cAMP reporter in Hana3A cells, inhibition of odorant response": "Benzaldehyde antagonized R-carvone, coumarin, and geraniol"}
{"target": "T1, mOR256-3", "assay": "CRE-luciferase cAMP reporter in Hana3A cells, dose-response fit", "format": "cell-based", "conditions": "agonist; 4 h, 37 °C, 5% CO2"}
{"compound": "C=CCOC(=O)Cc1ccccc1", "note": "[allyl phenylacetate]", "EC50": "Ten odorants activated mOR256-3 in a dose-dependent manner"}
{"compound": "CC(C)=CCC/C(C)=C/CO", "note": "[geraniol]", "EC50": "Ten odorants activated mOR256-3 in a dose-dependent manner"}
{"compound": "CCCCCCCCO", "note": "[1-octanol]", "EC50": "Ten odorants activated mOR256-3 in a dose-dependent manner"}
{"compound": "CCCCCC(C)=O", "note": "[2-heptanone]", "EC50": "Ten odorants activated mOR256-3 in a dose-dependent manner"}
{"compound": "CCCCCCCC=O", "note": "[octanal]", "EC50": "Ten odorants activated mOR256-3 in a dose-dependent manner"}
{"compound": "C=C(C)[C@@H]1CC=C(C)C(=O)C1", "note": "[R-carvone]", "EC50": "Ten odorants activated mOR256-3 in a dose-dependent manner"}
{"compound": "CCCCCCCC(=O)O", "note": "[octanoic acid]", "EC50": "Ten odorants activated mOR256-3 in a dose-dependent manner"}
{"compound": "O=c1ccc2ccccc2o1", "note": "[coumarin]", "EC50": "Ten odorants activated mOR256-3 in a dose-dependent manner"}
{"compound": "CC(=O)OCc1ccccc1", "note": "[benzyl acetate]", "EC50": "Ten odorants activated mOR256-3 in a dose-dependent manner"}
{"target": "T1, mOR256-3", "assay": "CRE-luciferase cAMP reporter in Hana3A cells, dose-response fit", "format": "cell-based", "conditions": "agonist; 4 h, 37 °C, 5% CO2; E/Z composition of citral not stated"}
{"compound": "CC(C)=CCCC(C)=CC=O", "note": "[citral]", "EC50": "Ten odorants activated mOR256-3 in a dose-dependent manner"}
